Reference: article PMC4676015, “Variant fatty acid-like molecules Conjugation, novel approaches for extending the stability of therapeutic peptides” (Scientific Reports, 2015)

Assays:
[1] = cited from earlier work
DPP IV enzyme = molecular target: T1, DPP IV enzyme (Homo sapiens, UniProt P27487); test: Stability against DPP IV proteolysis with or without HSA; type: in vitro ADME; conditions: for detectability of full-length peptide at 24 h / degradation in DPP IV proteolysis compared with wild-type GLP-1, within 24 h: DPP IV 0.1 mg/ml, peptide 1 mg/ml; for detectability of full-length peptide at 24 h: pH 7.0, in the presence of human serum albumin (2%); for degradation in DPP IV proteolysis compared with wild-type GLP-1, within 24 h: 25 mM potassium phosphate, 25 mM KCl, 5 mM MgCl2, pH 7.0, 2% HSA
T1 construct: purchased Sigma-Aldrich
T1 sequence (P27487 whole entry, species assumed): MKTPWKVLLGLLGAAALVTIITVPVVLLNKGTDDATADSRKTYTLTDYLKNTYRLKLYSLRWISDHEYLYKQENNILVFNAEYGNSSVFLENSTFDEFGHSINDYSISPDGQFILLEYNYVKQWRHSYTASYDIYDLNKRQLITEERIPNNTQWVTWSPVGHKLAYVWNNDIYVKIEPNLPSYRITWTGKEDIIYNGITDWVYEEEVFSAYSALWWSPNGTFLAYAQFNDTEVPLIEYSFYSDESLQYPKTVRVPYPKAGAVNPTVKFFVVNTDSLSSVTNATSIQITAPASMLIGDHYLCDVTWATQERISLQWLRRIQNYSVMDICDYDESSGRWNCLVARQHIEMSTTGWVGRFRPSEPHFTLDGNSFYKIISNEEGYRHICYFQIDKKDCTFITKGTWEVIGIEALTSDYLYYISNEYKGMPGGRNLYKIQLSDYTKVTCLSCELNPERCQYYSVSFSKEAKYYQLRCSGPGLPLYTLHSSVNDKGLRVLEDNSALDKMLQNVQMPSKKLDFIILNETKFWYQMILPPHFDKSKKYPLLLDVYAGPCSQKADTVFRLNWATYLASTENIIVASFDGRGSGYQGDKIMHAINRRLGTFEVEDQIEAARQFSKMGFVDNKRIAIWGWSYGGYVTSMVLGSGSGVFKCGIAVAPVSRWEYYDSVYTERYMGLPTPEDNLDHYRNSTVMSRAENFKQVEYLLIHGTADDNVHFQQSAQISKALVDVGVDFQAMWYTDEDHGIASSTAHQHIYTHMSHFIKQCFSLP
Experimental: DPP IV enzyme (0.1 mg/ml) was dissolved in 25 mM potassium phosphate buffer containing 25 mM potassium chloride and 5 mM magnesium chloride, pH 7.0.

GLP-1 receptor (GLP-1R) = molecular target: T2, GLP-1 receptor (GLP-1R) (Rattus norvegicus, UniProt P32301); test: GLP-1 receptor binding assay (cellular ELISA)
T2 construct: endogenous in cells; host or cells: rat INS-1 cells
T2 sequence (P32301 22-463): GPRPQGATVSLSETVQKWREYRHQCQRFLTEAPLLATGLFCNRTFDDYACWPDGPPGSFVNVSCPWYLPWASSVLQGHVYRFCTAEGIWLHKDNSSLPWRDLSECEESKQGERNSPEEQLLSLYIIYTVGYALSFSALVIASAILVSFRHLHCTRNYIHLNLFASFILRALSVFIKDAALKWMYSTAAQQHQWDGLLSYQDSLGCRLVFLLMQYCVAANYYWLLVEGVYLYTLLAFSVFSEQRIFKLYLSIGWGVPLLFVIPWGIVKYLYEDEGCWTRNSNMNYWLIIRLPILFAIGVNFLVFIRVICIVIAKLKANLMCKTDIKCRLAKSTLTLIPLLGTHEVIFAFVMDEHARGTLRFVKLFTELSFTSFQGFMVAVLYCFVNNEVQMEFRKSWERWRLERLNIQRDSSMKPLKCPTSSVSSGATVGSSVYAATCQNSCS
Experimental: Cells were rinsed with PBS and fixed with 4% paraformaldehyde (Thermo Scientific) for 10 min at room temperature and quenched for 5 min with 2% glycine in PBS, pH 7.5. […] After a 2 h incubation at 37 °C in a final volume of 100 μl, the excess peptides were washed, and the cells were blocked with 5% BSA (BD Biosciences). […] Colorimetric changes were analyzed by reading the absorbance at 450 nm in a SpectraMax M5 (Molecular Device) microplate reader. The peptide concentration was plotted against UV absorbance, and the Kd was calculated using Origin 7.0 software.

[2] = Blood retention time measurement; conditions: 500 μg/kg s.c., Wistar rats, n = 5, GLP-1 (7–37) ELISA
[3] = DPP IV proteolysis solution, 37 °C, GLP-1 (7–37) ELISA, P < 0.01

Row | Compound | detectability of full-length peptide at 24 h (DPP IV enzyme; 37 °C, GLP-1 (7–37) ELISA) | AUC0–24 h, amount of undigested GLP-1 fragments compared with wild-type GLP-1 (DPP IV enzyme; DPP IV proteolysis solution, 37 °C, 0-24 h, GLP-1 (7–37) ELISA, P < 0.01) | AUCGLP-1(7–37) in proteolysis solution compared to native GLP-1 (DPP IV enzyme; [3]) | degradation rate against DPP IV compared with compounds 6 and 21, respectively (DPP IV enzyme; DPP IV proteolysis, same carbon chain length without free carboxyl group as comparator) | Kd (GLP-1 receptor (GLP-1R)) | increase of circulating amount (AUC GLP-1 (7-37)) compared with native GLP-1 ([2]; 0.5-96 h) | blood retention / serum level behaviour [2] | degradation in DPP IV proteolysis compared with wild-type GLP-1, within 24 h (DPP IV enzyme; 37 °C, GLP-1 (7–37) ELISA) | stability (half-life) of native GLP-1 ([1]; degradation by DPP-IV, reference not given) | renal clearance ([1]; in vivo)
1 | CC[C@H](C)[C@H](NC(=O)[C@H](Cc1ccccc1)NC(=O)[C@H](CCC(=O)O)NC(=O)[C@H](CCCCN)NC(=O)[C@H](C)NC(=O)[C@H](C)NC(=O)[C@H](CCC(N)=O)NC(=O)CNC(=O)[C@H](CCC(=O)O)NC(=O)[C@H](CC(C)C)NC(=O)[C@H](Cc1ccc(O)cc1)NC(=O)[C@H](CO)NC(=O)[C@H](CO)NC(=O)[C@@H](NC(=O)[C@H](CC(=O)O)NC(=O)[C@H](CO)NC(=O)[C@@H](NC(=O)[C@H](Cc1ccccc1)NC(=O)[C@@H](NC(=O)CNC(=O)[C@H](CCC(=O)O)NC(=O)[C@H](C)NC(=O)[C@@H](N)Cc1c[nH]cn1)[C@@H](C)O)[C@@H](C)O)C(C)C)C(=O)N[C@@H](C)C(=O)N[C@@H](Cc1c[nH]c2ccccc12)C(=O)N[C@@H](CC(C)C)C(=O)N[C@H](C(=O)N[C@@H](CCCCN)C(=O)NCC(=O)N[C@@H](CCCN=C(N)N)C(=O)NCC(=O)O)C(C)C [GLP-1, glucagon-like peptide-1] | – | – | – | – | – | – | – | – | 3 to 5 min | less than 10 min
2 | CC[C@H](C)[C@H](NC(=O)[C@H](Cc1ccccc1)NC(=O)[C@H](CCC(=O)O)NC(=O)[C@H](CCCCN)NC(=O)[C@H](C)NC(=O)[C@H](C)NC(=O)[C@H](CCC(N)=O)NC(=O)CNC(=O)[C@H](CCC(=O)O)NC(=O)[C@H](CC(C)C)NC(=O)[C@H](Cc1ccc(O)cc1)NC(=O)[C@H](CO)NC(=O)[C@H](CO)NC(=O)[C@@H](NC(=O)[C@H](CC(=O)O)NC(=O)[C@H](CO)NC(=O)[C@@H](NC(=O)[C@H](Cc1ccccc1)NC(=O)[C@@H](NC(=O)CNC(=O)[C@H](CCC(=O)O)NC(=O)[C@H](C)NC(=O)[C@@H](N)Cc1c[nH]cn1)[C@@H](C)O)[C@@H](C)O)C(C)C)C(=O)N[C@@H](C)C(=O)N[C@@H](Cc1c[nH]c2ccccc12)C(=O)N[C@@H](CC(C)C)C(=O)N[C@H](C(=O)N[C@@H](CC(=O)NCCCCCCCCCCCC(=O)O)C(=O)NCC(=O)N[C@@H](CCCNC(=N)N)C(=O)NCC(=O)O)C(C)C [compound 22] | still detectable at 24 h | approximately 3.5 fold | significantly increased | significantly lower degradation rates | 0.0211 ± 0.00234 µM | 2.6 fold | extended the stabilities in vivo | – | – | –
3 | CC[C@H](C)[C@H](NC(=O)[C@H](Cc1ccccc1)NC(=O)[C@H](CCC(=O)O)NC(=O)[C@H](CCCCN)NC(=O)[C@H](C)NC(=O)[C@H](C)NC(=O)[C@H](CCC(N)=O)NC(=O)CNC(=O)[C@H](CCC(=O)NCCCCCCCCCCCC(=O)O)NC(=O)[C@H](CC(C)C)NC(=O)[C@H](Cc1ccc(O)cc1)NC(=O)[C@H](CO)NC(=O)[C@H](CO)NC(=O)[C@@H](NC(=O)[C@H](CC(=O)O)NC(=O)[C@H](CO)NC(=O)[C@@H](NC(=O)[C@H](Cc1ccccc1)NC(=O)[C@@H](NC(=O)CNC(=O)[C@H](CCC(=O)O)NC(=O)[C@H](C)NC(=O)[C@@H](N)Cc1c[nH]cn1)[C@@H](C)O)[C@@H](C)O)C(C)C)C(=O)N[C@@H](C)C(=O)N[C@@H](Cc1c[nH]c2ccccc12)C(=O)N[C@@H](CC(C)C)C(=O)N[C@H](C(=O)N[C@@H](CCCCN)C(=O)NCC(=O)N[C@@H](CCCNC(=N)N)C(=O)NCC(=O)O)C(C)C [compound 23] | still detectable at 24 h | – | significantly increased | – | 0.0243 ± 0.00196 µM | – | – | – | – | –

The next lines start with results.

Row | detectability of full-length peptide at 24 h (DPP IV enzyme; 37 °C, GLP-1 (7–37) ELISA) | AUC0–24 h, amount of undigested GLP-1 fragments compared with wild-type GLP-1 (DPP IV enzyme; DPP IV proteolysis solution, 37 °C, 0-24 h, GLP-1 (7–37) ELISA, P < 0.01) | AUCGLP-1(7–37) in proteolysis solution compared to native GLP-1 (DPP IV enzyme; [3]) | degradation rate against DPP IV compared with compounds 6 and 21, respectively (DPP IV enzyme; DPP IV proteolysis, same carbon chain length without free carboxyl group as comparator) | Kd (GLP-1 receptor (GLP-1R)) | increase of circulating amount (AUC GLP-1 (7-37)) compared with native GLP-1 ([2]; 0.5-96 h) | blood retention / serum level behaviour [2] | degradation in DPP IV proteolysis compared with wild-type GLP-1, within 24 h (DPP IV enzyme; 37 °C, GLP-1 (7–37) ELISA) | Compound | stability (half-life) of native GLP-1 ([1]; degradation by DPP-IV, reference not given) | renal clearance ([1]; in vivo)
4 | still detectable at 24 h | – | – | – | 0.0137 ± 0.00088 µM | – | – | slower degradation rates | CCCCCCCCCCCCCCCC(=O)NCCCC[C@H](NC(=O)[C@@H](NC(=O)[C@H](CC(C)C)NC(=O)[C@H](Cc1c[nH]c2ccccc12)NC(=O)[C@H](C)NC(=O)[C@@H](NC(=O)[C@H](Cc1ccccc1)NC(=O)[C@H](CCC(=O)O)NC(=O)[C@H](CCCCN)NC(=O)[C@H](C)NC(=O)[C@H](C)NC(=O)[C@H](CCC(N)=O)NC(=O)CNC(=O)[C@H](CCC(=O)O)NC(=O)[C@H](CC(C)C)NC(=O)[C@H](Cc1ccc(O)cc1)NC(=O)[C@H](CO)NC(=O)[C@H](CO)NC(=O)[C@@H](NC(=O)[C@H](CC(=O)O)NC(=O)[C@H](CO)NC(=O)[C@@H](NC(=O)[C@H](Cc1ccccc1)NC(=O)[C@@H](NC(=O)CNC(=O)[C@H](CCC(=O)O)NC(=O)[C@H](C)NC(=O)[C@@H](N)Cc1c[nH]cn1)[C@@H](C)O)[C@@H](C)O)C(C)C)[C@@H](C)CC)C(C)C)C(=O)NCC(=O)N[C@@H](CCCNC(=N)N)C(=O)NCC(=O)O [compound 6] | – | –
5 | still detectable at 24 h | – | significantly increased | – | 0.0175 ± 0.00275 µM | – | – | – | CCCCCCCCCCCCCCCCNC(=O)C[C@H](NC(=O)[C@@H](NC(=O)[C@H](CC(C)C)NC(=O)[C@H](Cc1c[nH]c2ccccc12)NC(=O)[C@H](C)NC(=O)[C@@H](NC(=O)[C@H](Cc1ccccc1)NC(=O)[C@H](CCC(=O)O)NC(=O)[C@H](CCCCN)NC(=O)[C@H](C)NC(=O)[C@H](C)NC(=O)[C@H](CCC(N)=O)NC(=O)CNC(=O)[C@H](CCC(=O)O)NC(=O)[C@H](CC(C)C)NC(=O)[C@H](Cc1ccc(O)cc1)NC(=O)[C@H](CO)NC(=O)[C@H](CO)NC(=O)[C@@H](NC(=O)[C@H](CC(=O)O)NC(=O)[C@H](CO)NC(=O)[C@@H](NC(=O)[C@H](Cc1ccccc1)NC(=O)[C@@H](NC(=O)CNC(=O)[C@H](CCC(=O)O)NC(=O)[C@H](C)NC(=O)[C@@H](N)Cc1c[nH]cn1)[C@@H](C)O)[C@@H](C)O)C(C)C)[C@@H](C)CC)C(C)C)C(=O)NCC(=O)N[C@@H](CCCNC(=N)N)C(=O)NCC(=O)O [compound 21] | – | –
6 | still detectable at 24 h | – | – | – | 0.0187 ± 0.00213 µM | – | – | slower degradation rates | CCCCCCCCCCCCNC(=O)CC[C@H](NC(=O)[C@H](CCCCN)NC(=O)[C@H](C)NC(=O)[C@H](C)NC(=O)[C@H](CCC(N)=O)NC(=O)CNC(=O)[C@H](CCC(=O)O)NC(=O)[C@H](CC(C)C)NC(=O)[C@H](Cc1ccc(O)cc1)NC(=O)[C@H](CO)NC(=O)[C@H](CO)NC(=O)[C@@H](NC(=O)[C@H](CC(=O)O)NC(=O)[C@H](CO)NC(=O)[C@@H](NC(=O)[C@H](Cc1ccccc1)NC(=O)[C@@H](NC(=O)CNC(=O)[C@H](CCC(=O)O)NC(=O)[C@H](C)NC(=O)[C@@H](N)Cc1c[nH]cn1)[C@@H](C)O)[C@@H](C)O)C(C)C)C(=O)N[C@@H](Cc1ccccc1)C(=O)N[C@H](C(=O)N[C@@H](C)C(=O)N[C@@H](Cc1c[nH]c2ccccc12)C(=O)N[C@@H](CC(C)C)C(=O)N[C@H](C(=O)N[C@@H](CCCCN)C(=O)NCC(=O)N[C@@H](CCCNC(=N)N)C(=O)NCC(=O)O)C(C)C)[C@@H](C)CC [compound 17] | – | –
